The test system of assay [1] is Klebsiella pneumoniae expressing VIM-1 (IHMA599644). Kind of assay: Antibiotic potentiation activity: synergistic concentration (MITC95) with imipenem, OD600 growth. In kind it is cell-based. The method in brief: (§1)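 Absorbance after a 22–24 h, 35 °C incubation served as the read-out. Wells held bacteria (saline suspension diluted 1:100 into 1.1× CAMHB), imipenem at 4 μg/ml final or optionally 1 μg/ml, and test compound.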

Assay [2] has as its system Serratia marcescens expressing IMP-1 (CL5741). Described as above. It is filed as cell-based. The method in brief:
as §1

The test system of assay [3] is Escherichia coli expressing NDM-1 (CLB30016). The description is as above. It is filed as cell-based. The method in brief: as §1
The next assay has as its target IMP-1 (Serratia marcescens, UniProt P52699). The experiment in a line: biochemical. Particulars: read-out: IMP-1 IC50. In kind it is biochemical.
The target of a further assay is VIM-1 (Pseudomonas aeruginosa (strain ATCC 15692 / DSM 22644 / CIP 104116 / JCM 14847 / LMG 12228 / 1C / PRS 101 / PAO1), UniProt A0A0F7KYQ8). The experiment in a line: Enzyme activity: determination of IC50, fluorescence assay with CCF2-FA substrate (VIM-1). It is filed as biochemical.
For the next assay, the target named is NDM-1 (Klebsiella pneumoniae, UniProt C7C422). The experiment in a line: biochemical. In kind it is biochemical. As to conditions: read-out: NDM-1 IC50.
Setting [4] is: IHMA599644 (VIM-1), 95% inhibition of bacterial growth.
[5] abbreviates: CL5741 (IMP-1), 95% inhibition of bacterial growth.
The mark [6] stands for this setting: CLB30016 (NDM-1), 95% inhibition of bacterial growth.
The mark [7] stands for this setting: fluorescence assay with CCF2-FA substrate.
Where [8] appears, read: fluorescence assay with CCF2-FA substrate, read-out: VIM-1 IC50.
The mark [9] stands for this setting: Klebsiella pneumoniae expressing VIM-1 (IHMA599644), 95% growth inhibition.
[10] abbreviates: Serratia marcescens expressing IMP-1 (CL5741), 95% growth inhibition.
Setting [11] is: Escherichia coli expressing NDM-1 (CLB30016), 95% growth inhibition.
[12] abbreviates: IMP-1 enzyme, CCF2-FA fluorescence assay.
Where [13] appears, read: VIM-1 IC50, VIM-1 enzyme, CCF2-FA fluorescence assay.
[14] abbreviates: NDM-1 enzyme, CCF2-FA fluorescence assay.
[15] abbreviates: VIM-1 enzyme, CCF2-FA fluorescence assay, read-out: VIM-1 IC50.

Each structure is given as a SMILES string. Read-outs that look alike come from different tables or passages of the source.

Chain of IMP-1 (P52699 whole entry, looked up): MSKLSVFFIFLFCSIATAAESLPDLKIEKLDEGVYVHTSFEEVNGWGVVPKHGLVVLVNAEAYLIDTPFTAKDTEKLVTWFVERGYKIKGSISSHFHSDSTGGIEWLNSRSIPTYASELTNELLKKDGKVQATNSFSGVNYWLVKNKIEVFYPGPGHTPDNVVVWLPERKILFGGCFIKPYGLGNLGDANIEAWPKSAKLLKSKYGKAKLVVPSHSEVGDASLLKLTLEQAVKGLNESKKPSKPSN
Chain of NDM-1 (C7C422 whole entry, looked up, species assumed): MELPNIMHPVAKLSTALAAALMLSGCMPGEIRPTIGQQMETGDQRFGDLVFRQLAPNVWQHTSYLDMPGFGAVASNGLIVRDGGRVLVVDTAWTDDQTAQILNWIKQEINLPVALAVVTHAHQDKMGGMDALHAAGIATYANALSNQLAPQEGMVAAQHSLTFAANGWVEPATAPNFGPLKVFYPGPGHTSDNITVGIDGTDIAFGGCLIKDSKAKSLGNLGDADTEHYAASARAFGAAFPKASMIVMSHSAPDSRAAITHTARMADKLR

Consider `NS(=O)(=O)c1c(C(F)(F)F)ccc(N2CCCC(CCCO)C2)c1-c1nnn[nH]1` (stereo not drawn) [Example 769, 3-[3-(3-hydroxypropyl)piperidin-1-yl]-2-(1H-tetrazol-5-yl)-6-(trifluoromethyl) benzenesulfonamide], for which the “Klebsiella pneumoniae MITC95” value in assay [1] (setting [4]) worked out at 50 µM. In assay [2] (setting [5]), the “Serratia marcescens MITC95” value amounted to 25 µM. Also, the “Escherichia coli MITC95” value in assay [3] (setting [6]) came to 100 µM. The IC50 (commonly the point on the concentration scale where inhibition reaches its midpoint) at IMP-1 (setting [7]) is 11.4 nM; at VIM-1 (setting [8]), 0.998 nM; on NDM-1 (setting [7]) it was 7.48 nM.

With `NS(=O)(=O)c1cccc(-c2ccc(CNCC3(O)CCC3)cc2)c1-c1nnn[nH]1` [Example 376, 4′-({[(1-hydroxycyclobutyl)methyl]amino}methyl)-2-(1H-tetrazol-5-yl)biphenyl-3-sulfonamide], the “Klebsiella pneumoniae MITC95” value in assay [1] (setting [9]) was found to be 15.63 µM. Further, in assay [2] (setting [10]), the “Serratia marcescens MITC95” value stood at 4.688 µM. Besides, in assay [3] (setting [11]), the “Escherichia coli MITC95” value was 2.344 µM. For the same molecule, the values for the IC50 at IMP-1 (setting [12]), against VIM-1 (setting [13]) and at NDM-1 (setting [14]) were 96.6 nM, 50.4 nM and 14.4 nM, respectively.

As for `NC(=O)C1CN(Cc2ccc(-c3cccc(S(N)(=O)=O)c3-c3nnn[nH]3)cc2)C1` [Example 362, 1-{[3′-sulfamoyl-2′-(1H-tetrazol-5-yl)biphenyl-4-yl]methyl}azetidine-3-carboxamide], in assay [1] (setting [9]), the “Klebsiella pneumoniae MITC95” value came out at 75 µM. The “Serratia marcescens MITC95” value in assay [2] (setting [10]) was found to be 3.125 µM. Moreover, in assay [3] (setting [11]), the “Escherichia coli MITC95” value was 0.7813 µM. The half-maximal inhibitory concentration (IC50) was found to be 116 nM at IMP-1 (setting [12]), 494 nM on VIM-1 (setting [13]) and 11.3 nM on NDM-1 (setting [14]).

On to `NS(=O)(=O)c1cccc(-c2ccc(CNC[C@@]3(O)CCOC3)cc2)c1-c1nnn[nH]1` [Example 373, 4′-[({[(3S)-3-hydroxytetrahydrofuran-3-yl]methyl}amino)methyl]-2-(1H-tetrazol-5-yl)biphenyl-3-sulfonamide], for which the “Klebsiella pneumoniae MITC95” value in assay [1] (setting [9]) was 50 µM. For the same molecule, in assay [2] (setting [10]), the “Serratia marcescens MITC95” value came out at 3.125 µM. In addition, in assay [3] (setting [11]), the “Escherichia coli MITC95” value is 1.563 µM. Besides, the half-maximal inhibitory concentration (IC50) was found to be 247 nM at IMP-1 (setting [12]), 241 nM at VIM-1 (setting [15]) and 11.3 nM at NDM-1 (setting [14]).

Turning to `NS(=O)(=O)c1cccc(-c2ccc(OC3CCNCC3)cc2)c1-c1nnn[nH]1` [Example 316, 4′-(piperidin-4-yloxy)-2-(1H-tetrazol-5-yl)-[1,1′-biphenyl]-3-sulfonamide], in assay [1] (setting [9]), the “Klebsiella pneumoniae MITC95” value came out at 12.5 µM. For the same molecule, the “Serratia marcescens MITC95” value in assay [2] (setting [10]) turned out to be 2.344 µM. The “Escherichia coli MITC95” value in assay [3] (setting [11]) worked out at 0.9766 µM. For the same molecule, the 50% inhibitory concentration (IC50) at IMP-1 (setting [12]) came out at 69.3 nM; on VIM-1 (setting [15]) it was 67.7 nM; at NDM-1 (setting [14]) it was 5.11 nM.

Regarding `CNC1CC(N2CCC(c3ccc(-c4ccc(C(F)(F)F)c(S(N)(=O)=O)c4-c4nnn[nH]4)cc3)CC2)C1` (stereo not drawn) [Example 799, 4′-{1-[3-(methylamino)cyclobutyl]piperidin-4-yl}-2-(1H-tetrazol-5-yl)-4-(trifluoromethyl)biphenyl-3-sulfonamide], the “Klebsiella pneumoniae MITC95” value in assay [1] (setting [4]) was greater than 200 µM. Further, the “Serratia marcescens MITC95” value in assay [2] (setting [5]) is 3.125 µM. Moreover, in assay [3] (setting [6]), the “Escherichia coli MITC95” value worked out at 3.125 µM. For the same molecule, the IC50 at IMP-1 (setting [7]) was found to be 1.05 nM; at VIM-1 (setting [8]), 15 nM; at NDM-1 (setting [7]), 3.89 nM.

Regarding `Nc1ccnc2cc(-c3cccc(S(N)(=O)=O)c3-c3nnn[nH]3)ccc12` [Example 412, 3-(4-amino-7-quinolyl)-2-(1H-tetrazol-5-yl)benzenesulfonamide], the “Klebsiella pneumoniae MITC95” value in assay [1] (setting [9]) was 3.125 µM. The “Serratia marcescens MITC95” value in assay [2] (setting [10]) was found to be 25 µM. The “Escherichia coli MITC95” value in assay [3] (setting [11]) came to 0.3906 µM. In addition, the IC50 stood at 1390 nM on IMP-1 (setting [12]), 25.8 nM on VIM-1 (setting [15]) and 25.9 nM at NDM-1 (setting [14]).

Source of the values: patent US9708336B2, “Metallo-beta-lactamase inhibitors” (priority 2014, dated 2017).
